Assay results published in ChEMBL document CHEMBL1667855, “Pyrrolidinone diterpenoid from Isodon excisus and inhibition of nitric oxide production in lipopolysaccharide-induced macrophage RAW264.7 cells” (Bioorg Med Chem Lett, 2011).

Assays:
RAW264.7 [1] = assay: Inhibition of LPS-induced NO production in mouse RAW264.7 cells assessed as nitrite formation after 24 hrs; assay type: functional, cell-based; settings: RAW264.7, 24 h
RAW264.7 [2] = assay: Cytotoxicity against mouse RAW264.7 cells assessed as cell viability by cell counting-based calorimetric assay

Row | IC50 (RAW264.7 [1]) [µM] | SMILES | Activity (RAW264.7 [2])
1 | 3.8 | C=C1C(=O)[C@@]23CC(=O)[C@@H]4C(C)(C)[C@@H](OC(C)=O)C[C@H](O)[C@@]4(C)[C@@H]2[C@@H](O)C[C@@H]1C3 [INFLEXARABDONIN E] | Non-toxic
2 | > 40 | C=C1[C@@H]2C[C@H](O)[C@@H]3[C@@](C2)(C[C@H](O)[C@@H]2C(C)(C)[C@@H](OC(C)=O)C[C@H](O)[C@]23C)[C@@H]1OC(C)=O [INFLEXARABDONIN D] | Non-toxic

Second part, the compound before the results:

Row | SMILES | IC50 (RAW264.7 [1]) [µM] | Activity (RAW264.7 [2])
3 | CC[C@H](O)/C=C/C=C/C=C/C(=O)CCCCCCCC(=O)O [CORCHORIFATTY ACID B] | > 40 | Non-toxic
4 | C[C@H](O)/C=C/[C@@]12O[C@]1(C)C[C@@H](O)CC2(C)C [CORCHOIONOL A] | > 40 | Non-toxic
5 | C=C1C(=O)[C@@]23CC[C@@H]4[C@](C)(CO[C@@H]5CCC(=O)N5)[C@@H](OC(C)=O)CC[C@@]4(C)[C@@H]2[C@@H](O)C[C@@H]1C3 [EXCISUSIN F] | 10.4 | Non-toxic
